Test results published in patent US9266890B2, “Pyrimido-diazepinone kinase scaffold compounds and methods of treating disorders” (Dana-Farber Cancer Institute, Inc., priority 2009, dated 2016).

Assays:
Mps1 (TTK) = Mps1 (TTK) (Homo sapiens (Human), UniProt P33981); test: Mps1 (TTK) Cellular Assay - Mitotic Escape Assay; type: cell-based; conditions: Hela cells arrested with thymidine then nocodazole (0.33 μM); compound 0.25-10 uM for 2 hrs
Method: FIG. 1. […] Hela cells were arrested in mitosis using the following protocol. Cells were treated with thymidine (2.5 mM) for 24 hours. Cells were released into medium containing nocodazole (0.33 μM). After 16 hrs. cells were treated with I-10 a range of concentrations (0.25, 0.5, 1, 2, 5 and 10 uM) shown above for 2 hrs. Cells were harvested and the levels of cyclin B (a marker for mitosis) were determined by immunoblot. High cyclin B levels indicated mitotic cells, while low cyclin B levels indicate cells have exited nocodazole-induced mitotic arrest.
Hela (or U2OS cells) were plated at roughly 30-35% cell density. After 24 hours the medium* was removed and fresh medium supplemented with 2.5 mM thymidine was added to arrest cells at the G1/S transition. After 24 hours in thymidine block the medium was removed, the cells were washed 3× with PBS and replaced with medium supplemented with 330 nM nocodazole (Noc). The cells were incubated with nocodazole for 16-18 hours to produce a mitotic arrest. […] After 2 hours, the cells were harvested, lysed in RIPA buffer, and the levels of cyclin B or phosphorylated Histone 3 (Ser10) determined by western blotting. Alternatively, cells were treated on coverslips, fixed, and phosphorylated Histone 3 levels determined by immunofluorescence. […]

Plk1 = Plk1 (Homo sapiens (Human), UniProt P53350); test: Plk1 Cellular Assay - Mitotic Arrest Assay; type: cell-based; conditions: Hela cells, immunofluorescence microscopy, 24 hours post-treatment
Chain of Plk1 (P53350 whole entry): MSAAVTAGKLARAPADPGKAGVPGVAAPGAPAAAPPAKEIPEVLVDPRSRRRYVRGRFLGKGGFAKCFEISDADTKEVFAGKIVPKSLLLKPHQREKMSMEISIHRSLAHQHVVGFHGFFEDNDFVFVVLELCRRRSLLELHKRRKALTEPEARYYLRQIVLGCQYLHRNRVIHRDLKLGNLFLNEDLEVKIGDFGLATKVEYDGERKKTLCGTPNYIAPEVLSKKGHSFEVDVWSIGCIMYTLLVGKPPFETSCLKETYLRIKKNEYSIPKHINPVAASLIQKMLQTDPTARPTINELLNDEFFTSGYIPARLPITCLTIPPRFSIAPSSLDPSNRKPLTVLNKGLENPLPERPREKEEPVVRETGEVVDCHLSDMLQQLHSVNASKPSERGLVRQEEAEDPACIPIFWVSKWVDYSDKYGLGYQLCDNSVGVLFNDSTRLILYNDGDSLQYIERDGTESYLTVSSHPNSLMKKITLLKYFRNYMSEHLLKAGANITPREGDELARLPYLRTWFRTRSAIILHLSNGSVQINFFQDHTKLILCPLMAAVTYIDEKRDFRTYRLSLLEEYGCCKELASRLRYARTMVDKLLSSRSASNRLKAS
Method: FIG. 2. […] Using immunofluorescence microscopy the cells were located by their DNA stain (Hoechst) and were then scored for phospho H3 positivity. Cells that are arrested in mitosis are phospho H3 positive.
Hela cells were plated at roughly 80% cell density on poly-lysine coated glass coverslips. After 24 hours the medium* was removed and fresh medium supplemented with test compounds was added. Twenty-four hours post-treatment the medium was removed, the coverslips were washed once with phosphate-buffered saline (PBS), pH 7.4 and the cells fixed for 10 minutes at room temperature using the following fixative solution: 100 mM K-Pipes, pH 6.8, 10 mM EGTA, 1 mM MgCl2, 0.2% Triton X-100, 3% formaldehyde. The coverslips were washed 3× with Tris-buffered saline solution (50 mM Tris-HCl pH 7.4, 150 mM NaCl) containing 0.1% Triton X-100 (TBST). The samples were blocked using 2% bovine serum albumin (BSA) in TBST. The samples were then incubated with a phosphorylation-specific antibody against histone 3 (phospho H3) serine-10 (Upstate, 1:500-1:1000) in blocking solution. Cells can also optionally be stained for tubulin as well using appropriate antibodies. After a 2-hr. incubation at room temperature (or 4° C. overnight), the samples were washed 3× with TBST. The samples were then incubated with an appropriate secondary antibody in blocking solution for 1-2 hrs at room temperature (or 4° C. overnight). […] The samples were washed 3× with TBST and mounted onto glass slides using Prolong Gold Antifade Reagent (Invitrogen). See FIGS. 2 and 3. *Hela/U2OS medium—Dulbecco's Modified Eagle's Medium (DMEM, Sigma), 10% fetal bovine serum, 1% penicillin/streptomycin

Chain of Mps1 (TTK) (P33981 whole entry): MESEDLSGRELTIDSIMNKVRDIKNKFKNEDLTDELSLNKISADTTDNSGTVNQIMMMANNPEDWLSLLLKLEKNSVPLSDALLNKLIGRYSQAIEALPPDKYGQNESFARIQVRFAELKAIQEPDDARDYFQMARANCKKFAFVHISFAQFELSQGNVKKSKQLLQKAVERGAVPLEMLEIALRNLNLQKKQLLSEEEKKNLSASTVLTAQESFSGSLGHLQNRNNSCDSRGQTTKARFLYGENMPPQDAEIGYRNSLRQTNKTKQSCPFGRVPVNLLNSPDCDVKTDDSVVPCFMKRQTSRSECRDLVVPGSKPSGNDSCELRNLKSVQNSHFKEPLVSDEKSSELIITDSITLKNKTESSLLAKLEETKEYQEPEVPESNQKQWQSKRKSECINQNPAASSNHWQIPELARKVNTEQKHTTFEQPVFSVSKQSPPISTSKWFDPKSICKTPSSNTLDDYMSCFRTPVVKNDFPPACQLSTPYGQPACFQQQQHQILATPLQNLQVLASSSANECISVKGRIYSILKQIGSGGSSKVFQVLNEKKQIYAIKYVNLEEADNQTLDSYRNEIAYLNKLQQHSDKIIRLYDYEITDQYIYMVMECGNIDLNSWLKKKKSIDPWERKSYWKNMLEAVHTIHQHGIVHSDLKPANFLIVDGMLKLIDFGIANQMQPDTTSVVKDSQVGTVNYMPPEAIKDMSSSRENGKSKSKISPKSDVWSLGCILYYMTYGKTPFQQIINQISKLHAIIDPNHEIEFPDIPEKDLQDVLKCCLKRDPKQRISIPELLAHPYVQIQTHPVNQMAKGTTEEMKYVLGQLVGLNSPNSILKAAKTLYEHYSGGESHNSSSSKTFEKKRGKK

## CCOc1cc(N2CCC(O)CC2)ccc1Nc1ncc2c(n1)N(C1CCCC1)CCC(=O)N2C [Compound I-10]
Mps1 (TTK)
  escape from mitosis (cyclin B levels by immunoblot): induces escape from mitosis

## COc1cc(C(=O)NC2CCN(C)CC2)ccc1Nc1ncc2c(n1)N(C1CCCC1)C(C)CC(=O)N2C (stereo not drawn) [Compound I-4]
Plk1
  mitotic arrest (phospho H3 positivity): induce a strong mitotic arrest

## COc1cc(C(=O)NC2CCN(C)CC2)ccc1Nc1ncc2c(n1)N(C1CCCC1)CC(C)C(=O)N2C (stereo not drawn) [Compound I-5]
Plk1
  mitotic arrest (phospho H3 positivity): induce a strong mitotic arrest

## COc1cc(N(C)CCO)ccc1Nc1ncc2c(n1)N(C1CCCC1)CCC(=O)N2C [Compound I-7]
Plk1
  mitotic arrest (phospho H3 positivity): do not

## COc1cc(N2CCC(O)CC2)ccc1Nc1ncc2c(n1)N(C1CCCC1)CCC(=O)N2C [Compound I-6]
Plk1
  mitotic arrest (phospho H3 positivity): do not

## COc1cc(N(C)CCCO)ccc1Nc1ncc2c(n1)N(C1CCCC1)CCC(=O)N2C [Compound I-8]
Plk1
  mitotic arrest (phospho H3 positivity): do not
